In patent US11208422B2, “Substituted bridged diazepane derivatives and use thereof as TASK-1 and TASK-3 inhibitors” (Bayer Pharma Aktiengesellschaft, priority 2017, dated 2021) one finds IC50 data, which are given here for 13 molecules.

The target of one assay is recombinant TASK-1 (Homo sapiens (Human), UniProt O14649). Nature of the assay: Inhibition of recombinant TASK-1 in stably transfected CHO cells (KCl-induced depolarization, voltage-sensitive dye, FLIPR). As to conditions: depolarization induced by 40 mM potassium chloride, some mean values from multiple determinations. The format is cell-based. The protocol: (§1) The compounds of the invention were tested here with administration of 40 mM of potassium chloride in the presence of a voltage-sensitive dye using the method described in detail in the following references [Whiteaker et al., Validation of FLIPR membrane potential dye for high-throughput screening of potassium channel modulators, J. Biomol. Screen. 6 (5), 305-312 (2001); Molecular Devices FLIPR Application Note: Measuring membrane potential using the FLIPR® membrane potential assay kit on Fluorometric Imaging Plate Reader (FLIPR®) systems, http://www.moleculardevices.com/reagents-supplies/assay-kits/ion-channels/flipr-membrane-potential-assay-kits]. The activity of the test substances was determined as their ability to inhibit a depolarization induced in the recombinant cells by 40 mM potassium chloride. The concentration which can block half of this depolarization is referred to as IC50.

The target of a further assay is recombinant TASK-3 (Homo sapiens (Human), UniProt Q9NPC2). Nature of the assay: Inhibition of recombinant TASK-3 in stably transfected CHO cells (KCl-induced depolarization, voltage-sensitive dye, FLIPR). It counts as cell-based. To be noted: depolarization induced by 40 mM potassium chloride, some mean values from multiple determinations. As to the method: as §1
Chain of recombinant TASK-3 (Q9NPC2 whole entry): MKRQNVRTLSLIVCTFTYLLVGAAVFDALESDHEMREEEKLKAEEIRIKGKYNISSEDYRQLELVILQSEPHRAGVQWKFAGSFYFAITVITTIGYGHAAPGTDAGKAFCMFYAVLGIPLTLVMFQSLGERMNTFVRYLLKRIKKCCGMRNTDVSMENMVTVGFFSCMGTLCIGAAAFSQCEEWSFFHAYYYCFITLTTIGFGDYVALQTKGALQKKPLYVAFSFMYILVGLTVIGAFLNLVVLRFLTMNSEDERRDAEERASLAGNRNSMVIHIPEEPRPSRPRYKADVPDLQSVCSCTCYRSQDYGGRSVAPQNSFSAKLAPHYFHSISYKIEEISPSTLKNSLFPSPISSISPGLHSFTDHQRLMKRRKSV

Chain of recombinant TASK-1 (O14649 whole entry): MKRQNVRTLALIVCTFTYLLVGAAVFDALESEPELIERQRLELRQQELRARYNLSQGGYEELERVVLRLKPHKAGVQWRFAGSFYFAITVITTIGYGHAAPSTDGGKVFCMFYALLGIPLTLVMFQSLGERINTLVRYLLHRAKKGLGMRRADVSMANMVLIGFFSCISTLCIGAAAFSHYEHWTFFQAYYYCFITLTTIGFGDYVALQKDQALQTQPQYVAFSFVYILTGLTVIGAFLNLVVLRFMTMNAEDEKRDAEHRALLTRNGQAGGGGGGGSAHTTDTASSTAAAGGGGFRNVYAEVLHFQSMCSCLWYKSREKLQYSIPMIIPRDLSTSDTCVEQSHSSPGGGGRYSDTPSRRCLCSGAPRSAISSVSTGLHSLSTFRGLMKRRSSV

`O=C(c1ccccc1F)N1C2CCC1CN(Cc1c(-c3ccc(Cl)cc3)nc3ccccn13)CC2` (single isomer, unassigned) [Example 88, [3-{[2-(4-Chlorophenyl)imidazo[1,2-a]pyridin-3-yl]methyl}-3,9-diazabicyclo[4.2.1]non-9-yl](2-fluorophenyl)methanone]: the half-inhibitory concentration (IC50) at recombinant TASK-1 is 0.091 µM; at recombinant TASK-3, 0.0016 µM.

Turning to `O=C(c1ccccc1F)N1C2CCC1CN(Cc1c(-c3ccc(Cl)cc3)nc3ccccn13)CC2` (single isomer, unassigned) [Example 89, [3-{[2-(4-Chlorophenyl)imidazo[1,2-a]pyridin-3-yl]methyl}-3,9-diazabicyclo[4.2.1]non-9-yl](2-fluorophenyl)methanone], the IC50 on recombinant TASK-1 worked out at 0.31 µM; on recombinant TASK-3, 0.019 µM.

For the molecule `COc1cccc(C(=O)N2C3CCC2CN(Cc2c(-c4ccc(Cl)cc4)nc4ccccn24)CC3)n1` (single isomer, unassigned) [Example 90, [3-{[2-(4-Chlorophenyl)imidazo[1,2-a]pyridin-3-yl]methyl}-3,9-diazabicyclo[4.2.1]non-9-yl](6-methoxypyridin-2-yl)methanone], the IC50 came to 0.043 µM on recombinant TASK-1 and 0.0028 µM on recombinant TASK-3.

Regarding `COc1cccc(C(=O)N2C3CCC2CN(Cc2c(-c4ccc(Cl)cc4)nc4ccccn24)CC3)n1` (single isomer, unassigned) [Example 91, [3-{[2-(4-Chlorophenyl)imidazo[1,2-a]pyridin-3-yl]methyl}-3,9-diazabicyclo[4.2.1]non-9-yl](6-methoxypyridin-2-yl)methanone], the IC50 on recombinant TASK-1 was determined as 0.29 µM; at recombinant TASK-3, 0.0055 µM.

On to `COc1ccc(F)c(C(=O)N2CC3CCC2CN(Cc2c(-c4ccc(Cl)cc4)nc4ccccn24)C3)n1` (single isomer, unassigned) [Example 94, [3-{[2-(4-chlorophenyl)imidazo[1,2-a]pyridin-3-yl]methyl}-3,6-diazabicyclo[3.2.2]non-6-yl](3-fluoro-6-methoxypyridin-2-yl)methanone], for which the IC50 was found to be 3.2 µM at recombinant TASK-1 and 0.11 µM at recombinant TASK-3.

Regarding `COc1cccc(C(=O)N2CC3CCC2CN(Cc2c(-c4ccc(Cl)cc4)nc4ccccn24)C3)n1` (single isomer, unassigned) [Example 95, [3-{[2-(4-chlorophenyl)imidazo[1,2-a]pyridin-3-yl]methyl}-3,6-diazabicyclo[3.2.2]non-6-yl](6-methoxypyridin-2-yl)methanone], the results for the IC50 at recombinant TASK-1 and on recombinant TASK-3 were 4.9 µM and 0.71 µM, respectively.

Regarding `O=C(c1ccccc1F)N1C2CCC1CN(Cc1c(-c3ccc(Cl)cc3)nc3ncccn13)CC2` (single isomer, unassigned; (-)) [Example 81, (−)-[3-{[2-(4-chlorophenyl)imidazo[1,2-a]pyrimidin-3-yl]methyl}-3,9-diazabicyclo[4.2.1]non-9-yl](2-fluorophenyl)methanone], the IC50 at recombinant TASK-1 was determined as 0.59 µM; on recombinant TASK-3 it was 0.0092 µM.

Take `COc1cccc(C(=O)N2CCC3CCC2CN3Cc2c(-c3ccc(Cl)cn3)nc3ccccn23)n1` (centres unmarked) [Example 18]: the results for the IC50 on recombinant TASK-1 and on recombinant TASK-3 were 1.6 µM and 0.167 µM, respectively.

On to `COc1ccc(F)c(C(=O)N2CCC3CCC2CN3Cc2c(-c3ccc(Cl)cn3)nc3ccccn23)n1` (centres unmarked) [Example 19], for which the IC50 was found to be 13.5 µM at recombinant TASK-1 and 0.58 µM on recombinant TASK-3.

On to `COc1ccc(Cl)c(C(=O)N2CCC3CCC2CN3Cc2c(-c3ccc(Cl)cn3)nc3ccccn23)n1` (centres unmarked) [Example 20], for which the IC50 at recombinant TASK-1 came to 3.35 µM; at recombinant TASK-3, 0.197 µM.

Turning to `COc1cccc(C(=O)N2CCC3CCC2CN3Cc2c(-c3ccc(Cl)cc3)nc3ncccn23)n1` (centres unmarked) [Example 21], the results for the IC50 on recombinant TASK-1 and on recombinant TASK-3 were 18 µM and 0.14 µM, respectively.

For `O=C(c1ccccc1F)N1CCC2CCC1CN2Cc1c(-c2ccc(Cl)cc2)nc2ncccn12` (centres unmarked) [Example 22], the values for the IC50 at recombinant TASK-1 and at recombinant TASK-3 were 27 µM and 0.37 µM, respectively.

On to `COc1ccc(Cl)c(C(=O)N2CCC3CCC2CN3Cc2c(-c3ccc(Cl)cc3)nc3ncccn23)n1` (centres unmarked) [Example 23], for which the IC50 on recombinant TASK-1 stood at 3 µM; on recombinant TASK-3 it was 0.024 µM.
